Experimental data published in ChEMBL document CHEMBL1201862, “PubChem BioAssay data set” (2004).
Calls of active or inactive are those of the source.

What was measured:
SUMO E1/E2 = SUMO E1/E2 (Homo sapiens, UniProt P63279+Q9UBE0+Q9UBT2); assay: SAR analysis of SUMOylation using HTRF in an in-Vitro dose response assay. [Related pubchem assays (depositor defined):AID2006, AID2011, AID2018, AID2069, AID2658]; format: functional
Large T antigen = Large T antigen (Simian virus 40, UniProt P03070); format: functional, Betapolyomavirus macacae;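 also: Confirmatory-stage PubChem screen for compounds that inhibit SV40 T antigen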
Sequence of Large T antigen (P03070 whole entry): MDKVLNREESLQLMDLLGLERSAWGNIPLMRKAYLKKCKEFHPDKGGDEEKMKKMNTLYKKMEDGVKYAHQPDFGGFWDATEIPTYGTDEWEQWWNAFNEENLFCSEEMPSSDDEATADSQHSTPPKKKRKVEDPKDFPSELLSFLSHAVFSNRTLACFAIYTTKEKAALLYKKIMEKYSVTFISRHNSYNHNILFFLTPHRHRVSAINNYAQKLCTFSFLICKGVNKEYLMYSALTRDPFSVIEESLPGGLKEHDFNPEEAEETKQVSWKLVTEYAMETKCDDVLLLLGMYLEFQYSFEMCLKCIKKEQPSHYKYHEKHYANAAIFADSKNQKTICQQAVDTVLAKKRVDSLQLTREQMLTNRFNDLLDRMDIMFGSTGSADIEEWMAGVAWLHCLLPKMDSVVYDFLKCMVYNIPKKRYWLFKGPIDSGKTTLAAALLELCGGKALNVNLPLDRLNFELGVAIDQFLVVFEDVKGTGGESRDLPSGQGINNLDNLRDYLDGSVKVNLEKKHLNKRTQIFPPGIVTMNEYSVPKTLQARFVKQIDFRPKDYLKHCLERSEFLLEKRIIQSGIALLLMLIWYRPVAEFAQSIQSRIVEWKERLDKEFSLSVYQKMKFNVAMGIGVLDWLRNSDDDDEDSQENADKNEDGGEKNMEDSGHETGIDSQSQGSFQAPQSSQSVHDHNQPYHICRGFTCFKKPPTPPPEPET

[1] = target: Intestinal-type alkaline phosphatase (Homo sapiens, UniProt P09923); assay: activation of human intestinal alkaline phosphatase – biochemical, dose response (AID 488873); format: functional
Sequence of Intestinal-type alkaline phosphatase (Homo sapiens, UniProt P09923) (P09923 whole entry): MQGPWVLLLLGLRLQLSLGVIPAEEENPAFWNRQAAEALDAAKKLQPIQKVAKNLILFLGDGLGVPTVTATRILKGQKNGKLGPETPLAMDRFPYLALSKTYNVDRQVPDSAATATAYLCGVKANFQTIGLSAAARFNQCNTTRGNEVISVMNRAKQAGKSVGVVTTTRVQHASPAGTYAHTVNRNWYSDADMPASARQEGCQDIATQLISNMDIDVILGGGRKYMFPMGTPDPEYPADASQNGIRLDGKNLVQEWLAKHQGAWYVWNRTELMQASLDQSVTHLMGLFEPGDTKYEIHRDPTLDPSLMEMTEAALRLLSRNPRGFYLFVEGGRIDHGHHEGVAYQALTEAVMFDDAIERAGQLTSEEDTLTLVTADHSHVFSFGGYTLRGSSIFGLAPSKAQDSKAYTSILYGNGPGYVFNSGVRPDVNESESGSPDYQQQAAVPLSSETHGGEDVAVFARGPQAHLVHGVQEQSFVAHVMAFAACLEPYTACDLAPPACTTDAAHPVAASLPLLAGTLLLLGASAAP

[2] = target: T1, Alkaline phosphatase, tissue-nonspecific isozyme (Homo sapiens, UniProt P05186); assay: activation of tissue-nonspecific alkaline phosphatase – biochemical, TNAP isozyme, mouse IAP uHTS hits, selectivity assay for mouse IAP activator project, dose response (AID 488880); format: functional
T1 sequence (P05186 whole entry): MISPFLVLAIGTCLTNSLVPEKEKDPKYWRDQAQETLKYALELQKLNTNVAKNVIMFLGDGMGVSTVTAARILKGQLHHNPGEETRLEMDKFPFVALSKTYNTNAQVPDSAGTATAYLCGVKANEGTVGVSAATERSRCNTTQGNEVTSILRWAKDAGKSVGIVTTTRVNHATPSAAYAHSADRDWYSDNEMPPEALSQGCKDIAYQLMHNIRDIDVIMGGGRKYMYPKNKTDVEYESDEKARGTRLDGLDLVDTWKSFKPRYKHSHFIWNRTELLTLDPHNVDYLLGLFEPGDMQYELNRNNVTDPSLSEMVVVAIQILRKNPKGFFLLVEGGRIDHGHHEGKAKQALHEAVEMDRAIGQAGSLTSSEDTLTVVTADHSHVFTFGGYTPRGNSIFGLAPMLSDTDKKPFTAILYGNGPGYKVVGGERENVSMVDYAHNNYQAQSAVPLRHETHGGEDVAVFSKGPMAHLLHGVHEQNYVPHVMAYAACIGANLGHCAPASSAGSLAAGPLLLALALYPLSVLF

[3] = target: Glucose-6-phosphate 1-dehydrogenase (Homo sapiens, UniProt P11413); assay: inhibition of Homo sapiens G6PD, dose series – biochemical, fluorescence, selectivity assay for P. falciparum G6PD inhibitor project, dose response (AID 504792); format: functional
Sequence of Glucose-6-phosphate 1-dehydrogenase (P11413 whole entry): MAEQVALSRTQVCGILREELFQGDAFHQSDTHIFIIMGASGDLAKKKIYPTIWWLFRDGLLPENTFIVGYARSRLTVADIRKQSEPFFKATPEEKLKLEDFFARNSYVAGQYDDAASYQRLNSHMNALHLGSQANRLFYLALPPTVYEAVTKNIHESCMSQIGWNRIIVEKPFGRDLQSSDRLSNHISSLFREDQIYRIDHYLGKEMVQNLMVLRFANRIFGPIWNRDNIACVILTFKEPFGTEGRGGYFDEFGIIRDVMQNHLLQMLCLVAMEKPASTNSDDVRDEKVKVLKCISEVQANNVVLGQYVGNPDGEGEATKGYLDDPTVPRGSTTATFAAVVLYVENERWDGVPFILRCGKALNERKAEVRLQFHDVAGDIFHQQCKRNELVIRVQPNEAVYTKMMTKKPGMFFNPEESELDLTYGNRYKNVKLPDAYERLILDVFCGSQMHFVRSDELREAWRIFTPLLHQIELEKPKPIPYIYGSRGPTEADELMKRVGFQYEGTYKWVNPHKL

[4] = target: Heat shock protein HSP 90-alpha (Homo sapiens, UniProt P07900); format: functional, organism-based
Bcl-2-like protein 1 = Bcl-2-like protein 1 (Homo sapiens, UniProt Q07817); assay: blockers of BCLXL peptide binding – biochemical, fluorescence polarization, 1536-well, selectivity assay for MCL1 inhibitor project, dose response (AID 2218)
Sequence of Bcl-2-like protein 1 (Q07817 whole entry): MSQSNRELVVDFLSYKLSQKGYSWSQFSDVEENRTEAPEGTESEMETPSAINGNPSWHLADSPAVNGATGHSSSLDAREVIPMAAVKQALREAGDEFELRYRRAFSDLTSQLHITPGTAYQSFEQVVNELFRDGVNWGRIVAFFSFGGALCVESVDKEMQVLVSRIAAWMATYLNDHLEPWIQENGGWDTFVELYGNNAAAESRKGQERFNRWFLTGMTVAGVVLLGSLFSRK

[5] = target: Induced myeloid leukemia cell differentiation protein Mcl-1 (Homo sapiens, UniProt Q07820); assay: blockers of MCL1 binding to BIM peptide – biochemical, fluorescence polarization, BIM-BH3 peptide, 1536-well, dose response (AID 2217)
Sequence of Induced myeloid leukemia cell differentiation protein Mcl-1 (Q07820 whole entry): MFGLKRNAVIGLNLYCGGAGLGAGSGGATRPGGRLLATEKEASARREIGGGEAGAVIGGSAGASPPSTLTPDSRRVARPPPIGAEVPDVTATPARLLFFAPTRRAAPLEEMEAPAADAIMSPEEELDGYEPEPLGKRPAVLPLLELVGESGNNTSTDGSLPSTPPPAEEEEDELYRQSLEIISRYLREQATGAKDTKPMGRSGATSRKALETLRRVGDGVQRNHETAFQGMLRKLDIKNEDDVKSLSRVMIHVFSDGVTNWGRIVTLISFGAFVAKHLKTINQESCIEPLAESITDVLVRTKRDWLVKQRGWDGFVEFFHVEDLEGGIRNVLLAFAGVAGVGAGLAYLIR

[6] = target: Intestinal-type alkaline phosphatase (Mus musculus, UniProt P24822); assay: mouse intestinal alkaline phosphatase activators, dose response, biochemical, luminescence, uHTS hits (AID 488783); format: functional
Sequence of Intestinal-type alkaline phosphatase (Mus musculus, UniProt P24822) (P24822 whole entry): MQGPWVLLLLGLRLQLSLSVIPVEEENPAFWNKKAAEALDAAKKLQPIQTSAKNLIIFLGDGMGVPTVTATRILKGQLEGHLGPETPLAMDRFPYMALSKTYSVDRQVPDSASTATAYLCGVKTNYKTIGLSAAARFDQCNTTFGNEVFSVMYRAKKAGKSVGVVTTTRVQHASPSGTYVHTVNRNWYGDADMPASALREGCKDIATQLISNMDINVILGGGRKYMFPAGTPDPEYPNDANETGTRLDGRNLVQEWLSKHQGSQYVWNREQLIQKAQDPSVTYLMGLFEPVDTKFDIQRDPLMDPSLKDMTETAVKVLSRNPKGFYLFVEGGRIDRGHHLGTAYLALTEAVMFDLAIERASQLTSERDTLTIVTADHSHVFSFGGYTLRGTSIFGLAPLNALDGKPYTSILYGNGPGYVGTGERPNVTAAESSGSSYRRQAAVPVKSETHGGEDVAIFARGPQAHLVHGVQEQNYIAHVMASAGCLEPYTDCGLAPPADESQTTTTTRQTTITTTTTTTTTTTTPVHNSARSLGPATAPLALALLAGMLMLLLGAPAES

Vero = assay: cells; format: functional; conditions: Chlorocebus sabaeus
[7] = target: T2, Tyrosine-protein phosphatase non-receptor type 7 (Homo sapiens, UniProt P35236); format: functional
T2 sequence (P35236 whole entry): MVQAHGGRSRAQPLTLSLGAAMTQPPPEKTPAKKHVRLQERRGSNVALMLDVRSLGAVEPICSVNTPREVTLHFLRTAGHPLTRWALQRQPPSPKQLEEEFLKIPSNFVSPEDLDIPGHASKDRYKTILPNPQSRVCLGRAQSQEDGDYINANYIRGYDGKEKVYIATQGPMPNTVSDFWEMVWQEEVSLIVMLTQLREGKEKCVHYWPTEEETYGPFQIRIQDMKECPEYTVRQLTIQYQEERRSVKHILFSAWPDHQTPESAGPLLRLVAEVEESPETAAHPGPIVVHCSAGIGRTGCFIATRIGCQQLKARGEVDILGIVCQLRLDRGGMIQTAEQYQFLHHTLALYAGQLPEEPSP

[8] = target: T3, Tyrosine-protein phosphatase non-receptor type 22 (Homo sapiens, UniProt Q9Y2R2); format: functional
T3 sequence (Q9Y2R2 whole entry): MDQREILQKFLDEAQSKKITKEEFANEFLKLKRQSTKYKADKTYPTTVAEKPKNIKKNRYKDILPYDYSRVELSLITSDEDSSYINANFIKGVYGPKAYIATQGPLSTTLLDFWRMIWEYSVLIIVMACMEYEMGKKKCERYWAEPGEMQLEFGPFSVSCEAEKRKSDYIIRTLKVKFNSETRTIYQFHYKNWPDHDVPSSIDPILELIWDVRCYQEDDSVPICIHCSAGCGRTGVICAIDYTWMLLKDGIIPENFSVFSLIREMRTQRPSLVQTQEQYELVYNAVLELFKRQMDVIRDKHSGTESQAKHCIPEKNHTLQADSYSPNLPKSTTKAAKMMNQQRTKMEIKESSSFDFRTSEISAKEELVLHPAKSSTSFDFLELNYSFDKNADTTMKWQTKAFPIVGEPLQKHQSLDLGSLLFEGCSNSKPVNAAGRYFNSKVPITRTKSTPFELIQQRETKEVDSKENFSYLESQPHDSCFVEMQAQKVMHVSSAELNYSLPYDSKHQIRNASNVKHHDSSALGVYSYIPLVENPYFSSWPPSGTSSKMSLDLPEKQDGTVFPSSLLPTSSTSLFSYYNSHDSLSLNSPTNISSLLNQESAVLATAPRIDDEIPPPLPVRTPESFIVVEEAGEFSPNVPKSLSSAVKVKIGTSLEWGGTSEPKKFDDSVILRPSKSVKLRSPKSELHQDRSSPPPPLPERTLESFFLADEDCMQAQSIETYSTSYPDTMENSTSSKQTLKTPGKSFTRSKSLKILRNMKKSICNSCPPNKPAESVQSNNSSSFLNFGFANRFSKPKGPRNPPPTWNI

[9] = target: T3, Tyrosine-protein phosphatase non-receptor type 22; format: functional; remark: listed apart in the source

Sequence of SUMO E1/E2 (Q9UBE0 whole entry): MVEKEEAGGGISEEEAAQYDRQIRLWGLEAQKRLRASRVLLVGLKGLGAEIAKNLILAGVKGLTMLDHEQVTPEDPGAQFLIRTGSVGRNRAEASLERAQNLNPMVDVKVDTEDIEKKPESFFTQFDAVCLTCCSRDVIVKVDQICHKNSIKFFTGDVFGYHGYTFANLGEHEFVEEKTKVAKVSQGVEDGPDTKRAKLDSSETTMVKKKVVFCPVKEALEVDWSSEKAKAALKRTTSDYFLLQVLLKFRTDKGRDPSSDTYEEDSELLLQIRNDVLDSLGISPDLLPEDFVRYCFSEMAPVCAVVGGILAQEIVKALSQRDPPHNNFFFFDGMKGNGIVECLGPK
Sequence of SUMO E1/E2 (Q9UBT2 whole entry): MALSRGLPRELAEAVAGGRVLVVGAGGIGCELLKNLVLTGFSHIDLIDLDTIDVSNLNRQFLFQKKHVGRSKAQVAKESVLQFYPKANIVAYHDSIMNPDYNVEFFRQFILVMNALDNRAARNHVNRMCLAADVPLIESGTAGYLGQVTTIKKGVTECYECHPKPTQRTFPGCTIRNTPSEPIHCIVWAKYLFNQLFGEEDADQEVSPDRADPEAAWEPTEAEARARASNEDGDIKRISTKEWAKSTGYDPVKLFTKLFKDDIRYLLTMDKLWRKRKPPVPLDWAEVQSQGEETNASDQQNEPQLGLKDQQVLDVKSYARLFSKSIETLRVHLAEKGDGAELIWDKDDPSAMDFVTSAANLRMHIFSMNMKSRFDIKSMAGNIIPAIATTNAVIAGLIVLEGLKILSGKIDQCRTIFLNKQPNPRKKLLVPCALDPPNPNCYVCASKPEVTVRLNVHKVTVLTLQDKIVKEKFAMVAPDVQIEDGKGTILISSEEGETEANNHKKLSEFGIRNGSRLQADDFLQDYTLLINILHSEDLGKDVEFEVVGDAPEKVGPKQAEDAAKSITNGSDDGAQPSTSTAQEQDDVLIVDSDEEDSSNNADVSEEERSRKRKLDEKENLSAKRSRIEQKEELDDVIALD
Sequence of SUMO E1/E2 (P63279 whole entry): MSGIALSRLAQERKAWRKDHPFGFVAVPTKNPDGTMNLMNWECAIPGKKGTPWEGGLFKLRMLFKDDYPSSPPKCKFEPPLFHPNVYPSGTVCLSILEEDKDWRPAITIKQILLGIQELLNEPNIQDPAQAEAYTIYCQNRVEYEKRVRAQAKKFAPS

With `CC(=NOCc1nc2ccccc2c(=O)n1N=Cc1cc([N+](=O)[O-])ccc1O)c1ccccc1` the IC50 (SUMO E1/E2) was 27 µM (active).

In the case of `O=C1NC(=S)NC(=O)C1=Cc1ccc(Br)s1`, the IC50 (Large T antigen) is reported as 64.5 µM (active), the EC50 [1] is reported as 76.8 µM (active) and the EC50 [2] is reported as 61.6 µM (active). The IC50 [3] was 36.4 µM (inactive), the AC50 [4] was 25.6 µM (active) and the IC50 (Bcl-2-like protein 1) was > 109 µM (not active). The IC50 [5] was > 12.1 µM (not active), the EC50 [6] was 59.7 µM (active) and the CC50 (Vero) was 21.4 µM (active).

With `Cc1ccc(N2CCN(CCCCN3C(=O)C4CCCN4C3=O)CC2)cc1` (stereo not drawn) the IC50 [7] was > 79.4 µM (inactive), the IC50 [8] was > 79.4 µM (inactive) and the IC50 [9] was > 79.4 µM (inactive).
